From PubChem BioAssay (NCI)
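Test compounds were applied to cells in 96-well plates for 48 hours at 5 doses. At the TGI there is no net growth.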

Columns and labels:
Experiment in all cases: growth of human tumour cells (NCI), 48 h
SNB-75 CNS = test system: SNB-75 CNS
NCI-H23 lung = test system: NCI-H23 lung
U251 CNS = test system: U251 CNS
MCF7 breast = test system: MCF7 breast
HCC-2998 colon = test system: HCC-2998 colon
RXF 393 renal = test system: RXF 393 renal
SF-295 CNS = test system: SF-295 CNS
COLO 205 colon = test system: COLO 205 colon
HCT-15 colon = test system: HCT-15 colon
EKVX NSCLC = test system: EKVX NSCLC

SMILES | TGI (SNB-75 CNS) | TGI (NCI-H23 lung) | TGI (U251 CNS) | TGI (MCF7 breast) | TGI (HCC-2998 colon) | TGI (RXF 393 renal) | TGI (SF-295 CNS) | TGI (COLO 205 colon) | TGI (HCT-15 colon) | TGI (EKVX NSCLC)
Cc1nc2ccc(Cl)cc2c(-n2ccnc2)c1CCn1ccnc1 | 72.8 µM | > 100 µM | > 100 µM | > 100 µM | > 100 µM | 53.1 µM | > 100 µM | 41.5 µM | > 100 µM | 
CN(/N=C1\C(=O)Nc2ccccc21)c1ccccc1 | > 100 µM | > 100 µM | > 100 µM | > 100 µM | > 100 µM |  | > 100 µM |  | > 100 µM | > 100 µM
Cc1ccc2c(c1C)C(=O)C1(Cc3cc4c(cc3C1=O)CCC4)C2 (configuration not stated) | > 100 µM | > 100 µM | > 100 µM | > 100 µM | > 100 µM | > 100 µM | > 100 µM | > 100 µM | > 100 µM | > 100 µM
COc1cc([C@@H]2c3cc4c(cc3[C@@H](NC(=O)c3ccc(C#N)cc3)C3COC(=O)[C@@H]32)OCO4)cc(OC)c1O (some centres not stated) | 5.49 µM | 0.837 µM | 1.26 µM |  | 4.18 µM | 9.92 µM | 11.8 µM | 16.4 µM | 15.1 µM | 5.73 µM
NS(=O)(=O)c1nnc(NC(=O)N(c2ccccc2)c2ccccc2)s1 | 72.4 µM | 58.9 µM | > 100 µM | > 100 µM |  | 51.4 µM | > 100 µM | > 100 µM | > 100 µM | 78.2 µM
CN(C)c1nc(Oc2nc(N(C)C)nc(N(C)C)n2)nc(N(C)C)n1 | > 100 µM | > 100 µM | > 100 µM |  | > 100 µM | > 100 µM | > 100 µM | > 100 µM | > 100 µM | > 100 µM
COC(=O)CCC(NC(=S)N/N=C/c1cccs1)C(=O)OC (configuration not stated) | > 100 µM | > 100 µM | > 100 µM |  | > 100 µM | > 100 µM | > 100 µM | > 100 µM | > 100 µM | > 100 µM
Cn1nc(-c2ccc(S(=O)(=O)/N=C(\NN)Nc3ccc(Cl)cc3)s2)cc1C(F)(F)F | 29.9 µM | 40.9 µM | 28.3 µM | 44.5 µM |  | 23.6 µM | 31.3 µM | 37.6 µM | 47.5 µM | 28.2 µM
Cc1cc([N+](=O)[O-])c(C)c2c1[nH]c1ccc(Cl)cc12 | > 100 µM | > 100 µM |  |  | > 100 µM |  | > 100 µM | > 100 µM | > 100 µM | > 100 µM
O=c1cc(O)cc2n1CCC2 | > 100 µM |  | > 100 µM |  | > 100 µM | > 100 µM | > 100 µM | > 100 µM | > 100 µM | > 100 µM
O=C(CC(NC(=O)C(F)(F)F)C(=O)O)OCc1ccccc1 (configuration not stated) | > 100 µM | > 100 µM | > 100 µM | > 100 µM | > 100 µM | > 100 µM | > 100 µM | > 100 µM | > 100 µM | > 100 µM
CC1CC(N2CCOCC2)=Nc2ccccc2N1C (configuration not stated) | 89.7 µM | > 100 µM | > 100 µM |  |  | > 100 µM | > 100 µM | > 100 µM | > 100 µM | > 100 µM
C[n+]1cc2cc(O)c(O)cc2c2ccc3cc(O)c(O)cc3c21 | 59.3 µM | 18.3 µM | 9.91 µM | 9.09 µM | > 57.6 µM | 9.34 µM | 38.8 µM | > 84.5 µM | > 34.2 µM | > 100 µM
COC(=O)c1ccccc1C1CN=NC12Cc1c(ccc(C)c1C)C2=O (configuration not stated) | 89.1 µM | > 100 µM | > 100 µM | > 100 µM | > 100 µM | > 100 µM | > 100 µM | > 100 µM | > 100 µM | > 100 µM
CN(C)CCn1c(=O)c2ccc(NCCCN(C)CCCNc3ccc4c(=O)n(CCN(C)C)c(=O)n5c6ccc(O)cc6c(=O)c3c45)c3c(=O)c4cc(O)ccc4n(c1=O)c23 | 0.0627 µM | 0.226 µM | 0.3 µM | 0.71 µM | 0.173 µM | 0.215 µM | 2.33 µM | 0.187 µM | 3.41 µM | 0.929 µM
N#Cc1c(-c2ccc([N+](=O)[O-])cc2)cc(-c2ccc(Nc3ccnc4cc(Cl)ccc34)cc2)[nH]c1=O | > 100 µM | > 100 µM | > 100 µM | > 100 µM | > 100 µM | > 100 µM | > 100 µM | > 100 µM | > 100 µM | > 100 µM
N#CNC(N)=NCc1ccccc1 | > 100 µM | > 100 µM | > 100 µM |  | > 100 µM |  | > 100 µM | > 100 µM | > 100 µM | 
COCOc1ccc(C(=O)Oc2cccc3c2OC(C)(C)O3)c(OCOC)c1 | > 100 µM | 26.3 µM | > 100 µM | > 100 µM | > 100 µM | > 100 µM | > 100 µM | > 100 µM | > 100 µM | > 100 µM
Cc1nnc2n(c1=O)CCCN2C | > 100 µM | > 100 µM | > 100 µM | > 100 µM | > 100 µM | > 100 µM | > 100 µM | > 100 µM | > 100 µM | > 100 µM
O=C(c1ccco1)N(C(=O)N1CCCCC1)c1ccccc1 |  | > 100 µM | > 100 µM | > 100 µM |  | > 100 µM |  | > 100 µM | > 100 µM | > 100 µM
Cc1c2cccc-2c2cc(O)c3ccccc3c2n1-c1ccc(N(C)C)cc1 | 17.5 µM | 18.2 µM | 25.9 µM | 17.4 µM | 35.1 µM |  | 22.5 µM | 32.6 µM | 20 µM | 11.7 µM
CCCCCCCC(=O)OCC(COC(=O)C(C)(C)C)OC(=O)Cc1ccccc1 (configuration not stated) |  | > 100 µM | > 100 µM |  | > 100 µM |  | > 100 µM | > 100 µM | > 100 µM | 
COc1cc2ccc3c4cc(OC)c(OC)cc4c[n+](C)c3c2cc1O | > 100 µM | > 100 µM | > 87.9 µM |  | > 100 µM | > 100 µM |  | > 100 µM | > 100 µM | > 100 µM
